# Target: T1, Mushroom tyrosinase
# T1 construct: gene PPO3; commercial native mushroom tyrosinase (Sigma), isoenzyme mixture
# Assay: absorbance at […] nm, […] min
# Assay type: biochemical
# Conditions: L-tyrosine substrate (1 mL of 100 mg/L); sodium phosphate buffer; DMSO stock; alpha or beta anomer not stated
structure (smiles),measurement,value
OC[C@H]1O[C@@H](Oc2ccc(O)cc2)[C@H](O)[C@@H](O)[C@@H]1O [arbutin],IC50,0.056 ± 0.012 mg/mL

# From paper PMC6276509, “Evaluation of Tyrosinase Inhibitory, Antioxidant, Antimicrobial, and Antiaging Activities of Magnolia officinalis Extracts after Aspergillus niger Fermentation” (BioMed Research International, 2018)
